Patent US10233157B2, “SIK inhibitor for use in a method of treating an inflammatory and/or immune disorder” (Dana-Farber Cancer Institute, Inc., priority 2012, dated 2019)

Columns and labels:
LKB1−/− macrophages = assay: Cytokine secretion in LKB1−/− macrophages; format: cell-based, mouse
Excerpt: FIGS. 9A to 9I. Genetic evidence using LKB1-deficient macrophages and a drug-resistant mutant of SIK2 to establish that inhibition of SIKs induces IL-10 production. (FIG. 9A) Loss of CRTC3 phosphorylation in LKB1−/− MEFs. (FIG. 9B) Enhanced IL-10 production and reduced secretion of pro-inflammatory cytokines in LysM-Cre-LKB1flox/flox macrophages (n=3, mean±SD). (FIG. 9C) Sequence alignment of AMPK-related kinases. The ‘gatekeeper’ site is indicated using an asterisk. (FIG. 9D) […] curves of KIN112 against different SIK2 mutants. […]. (FIG. 9F) Induction of HA-SIK2 (WT and [T96Q]) expression in RAW264.7 macrophages. […]. RAW264.7 cells were induced to express HA-SIK2-WT or HA-SIK2[T96]. As a further control, cells transduced with the empty vector and which only express endogenous SIK isoforms were also used. […]. […]. IL-10^−/− mice on a C57BL/6 background were purchased from The Jackson Laboratory, Maine, USA. LKB1^flox/flox mice on a C57BL/6 background were a generous gift from Alan Ashworth and were crossed with LysM-Cre mice to delete LKB1 in macrophages. Mice were bred at the University of Dundee under specific pathogen-free conditions in accordance with European Union regulations. Water supply for IL-10^−/− mice was supplemented with antibiotics to prevent the development of colitis. Work was approved by local ethical review and was performed with a UK Home Office project license. […]

CRTC3 = CRTC3 nuclear translocation (immunofluorescence, live imaging); format: cell-based; settings: WT CRTC3
Excerpt: FIGS. 15A to 15C. SIK inhibitors induce the dephosphorylation of CRTC3 at Ser62, Ser162, Ser329 and Ser370 and its translocation to the nucleus. (FIG. 15A) HEK293 cells were transfected with FLAG-CRTC2, FLAG-CRTC3 or FLG-CRTC3[S162A]. Aliquots of the cell extracts were subjected to SDS-PAGE and immunoblotting using an antibody that recognizes CRTC2 phosphorylated at Ser171. […] (FIG. 15B) HEK293 cells were transfected with FLAG-CRTC3, FLAG-CRTC3[S62A/S162A/S329A/S370A] (termed CRTC3-4A) or with empty vector (FLAG-ev). […]. (FIG. 15C) Inhibition of SIKs promotes the translocation of endogenous CRTC3 to the nucleus. […].
RAW264.7 cells were grown on glass coverslips and treated with inhibitors for 1 h. Cells were then fixed for 10 min in 3.7% paraformaldehyde, permeabilized for 5 min using 0.1% Triton X-100 in PBS and blocked for 45 min using 3% BSA in PBS. Cells were stained with anti-CRTC3 (Abcam 1:200) and anti-α-tubulin (Santa Cruz 1:500) followed by anti-rabbit-alexa488 and anti-mouse-alexa594 (Invitrogen 1:500), respectively. Antibodies were diluted in blocking buffer and incubated with the cells for 45 min. […] Images were recorded every 30 s for 1.5 min prior to the addition of drug after which cells were imaged for a further 60 min.

CREB = assay: Immunoblotting of CREB phosphorylation in LPS-stimulated macrophages; format: cell-based, mouse
Protocol: Bone-marrow derived macrophages were differentiated for 7 days in DMEM supplemented with 5 ng/ml recombinant M-CSF (R&D systems), 2 mM glutamine, 10% foetal calf serum, penicillin and streptomycin. […]
Cells were rinsed in ice-cold PBS and extracted in lysis buffer (50 mM Tris/HCl pH 7.4, 1 mM EDTA, 1 mM EGTA, 50 mM NaF, 5 mM sodium pyrophosphate, 10 mM sodium α-glycerol 1-phosphate, 1 mM dithiothreitol, 1 mM sodium orthovanadate, 0.27 M sucrose, 1% (v/v) Triton X-100, 1 μg/ml aprotinin, 1 μg/ml leupeptin and 1 mM phenylmethylsulphonyl fluoride). Cell extracts were clarified by centrifugation at 14000×g for 10 min at 4° C. and protein concentrations determined using the Bradford assay. To detect proteins in cell lysates, 20 μg of protein extract was separated by SDS-PAGE. After transfer to PVDF membranes, proteins were detected by immunoblotting and visualized by treating the blots with ECL (Amersham) followed by autoradiography. The antibody recognizing CREB phosphorylated at Ser133 was from Cell Signalling Technology and the one detecting α-tubulin was obtained from Sigma.

NUAK isoforms = assay: Kinase assays, NUAK isoforms; format: biochemical; settings: in vitro
Protocol: FLAG-CRTC3 was immunoprecipitated using anti-FLAG M2 agarose, washed in kinase buffer (50 mM Tris/HCl pH 7.4, 10 mM Mg acetate, 0.1 mM EGTA, 2 mM DTT) and reactions initiated by adding 4 U/ml recombinant kinase with 0.1 mM ATP (specific activity 3000 cpm/pmol). Phosphorylation of CRTC3 was monitored by autoradiography as well as immunoblotting using phosphospecific antibodies raised against Ser162, Ser329 and Ser370.

Compound | IL-10, IL-12 and TNFα secretion in response to LPS (LKB1−/− macrophages) | CRTC3 nuclear translocation (CRTC3) | phosphorylation of CREB at Ser133 induced by LPS (CREB) | inhibition of NUAK isoforms (NUAK isoforms)
COc1ccc(N(C(=O)Nc2c(C)cccc2C)c2cc(Nc3ccc(N4CCN(C)CC4)cc3)ncn2)c(OC)c1 [HG-9-91-01, 1-(2,4-dimethoxyphenyl)-3-(2,6-dimethylphenyl)-1-(6-((4-(4-methylpiperazin-1-yl)phenyl)amino)pyrimidin-4-yl)urea] | unaffected | translocates to the nucleus |  | 
O=C(NCCCNc1nc(Nc2cccc(CN3CCOCC3)c2)ncc1C1CC1)C1CCC1 [MRT67307] |  |  | little effect | comparable potency to the IKK-related kinases
